Test results from patent US12448400B2, “KRAS G12D modulating compounds” (priority 2023, dated 2025).
pEC50, pIC50: −log10 of the molar value. Where two headings read alike, the source gives them in different places.

Key:
[1] = target: GDP-loaded KRAS G12D (Homo sapiens, UniProt P01116, G12D); test: KRAS G12D (GDP) biochemical assay, TR-FRET probe displacement; assay type: binding; conditions: 0.5 nM enzyme, 30 min pre-incubation, 2 h incubation, TR-FRET ratio; read-out: G12D IC50
Experimental: Example A. KRAS G12D (GDP) Biochemical Assay
Compounds were tested for binding to GDP-loaded KRAS G12D in a 384-well assay format using a TR-FRET probe displacement assay in buffer consisting of 50 mM Hepes (pH 7.4), 150 mM NaCl, 5 mM MgCl2 and 0.005% Tween-20. […] Compounds were serially diluted (1:3) in DMSO. The LabCyte ECHO Acoustic dispenser system was used to pre-spot the assay plates (384-well Non-Binding Surface plates, Corning, Catalog #3824) with 50 nL of compound. The compounds were pre-incubated with 5 μL of 2× final enzyme concentration for 30 minutes before adding 5 μL of 2× final concentration of Eu-streptavidin and TR-FRET probe (10 μL final reaction volume). The plates were incubated at room temperature for 2 hours before measuring TR-FRET ratio on the Envision plate reader. IC50 values were defined as the compound concentration that causes a 50% decrease in TR-FRET ratio and were calculated using a sigmoidal dose-response model to generate curve fits.

[2] = tested on: GP2D (KRAS G12D) cells; test: 2D cell viability assay (CellTiter-Glo); assay type: cell-based; conditions: GP2D cells, 4 days, CellTiter-Glo luminescence, read-out: G12D 2D EC50
Summary of the method: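 GP2D (KRAS G12D) cells, 1000/well in RPMI + 10% FBS, were plated onto compound (1:3 DMSO series) and grown 4 days at 37 °C, 5% CO2 in 2D. CellTiter-Glo luminescence was read; EC50 is the concentration giving 50% signal decrease, from sigmoidal fit.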

[3] = Mouse oral cassette pharmacokinetics; assay type: in vivo, male CD-1 mice
Experimental: Mouse Oral Cassette Pharmacokinetics
Test compounds (1-3 compounds per cassette) were formulated in solution formulations (10 w/v % Captisol in 50 mM Citrate buffer) and administered orally at 30 mg-eq./kg each compound to a group of four male CD-1 mice. The test articles were administrated by oral gavage at a dose volume of 10 mL-eq/kg.
Blood samples were collected at 0.5, 1, 3, 6, 8, and 24 hours post dose into K2EDTA tubes and stored on wet ice until processed. Whole blood was processed to plasma by centrifugation (3500 rpm for 10 minutes at 5° C.) within 30 minutes of collection. Plasma samples were placed in Micronic 96 well tubes and stored at −80° C. until transferred. Plasma concentration of the test compounds was determined by LC-MS/MS. Pharmacokinetic parameters were estimated using non-compartment model analysis. The maximum observed concentration (Cmax) and area under the curve from time of dosing to last measured concentration (AUClast) were calculated and reported.

[4] = oral gavage, 30 mg-eq./kg each compound, cassette, plasma, AUClast of parent
[5] = male, CD-1, mouse, in vivo, po, 30 mg/kg

| Molecule | pIC50 [1] | pEC50 [2] | Mouse Parent AUC [3, 4] [nM·h] | pEC50 ([2]; 96 h) | Mouse Parent AUC [3, 5] [nM·h] |
| --- | --- | --- | --- | --- | --- |
| 4-(((1S,4R,11R,14aR)-11-(8-ethynyl-7-fluoro-3-hydroxynaphthalen-1-yl)-10,12-difluoro-8-(((2R,7aS)-2-fluorotetrahydro-1H-pyrrolizin-7a(5H)-yl)methoxy)-1,2,3,4,5,13,14,14a-octahydro-1,4-epiminoazepino[1′,2′:1,71azepino[2,3,4-de]quinazolin-15-yl)methyl)-5-methyl-1,3-dioxol-2-one [Example 37] | 9.00 | 9.64 | 130 | – | – |
| 5-ethynyl-6-fluoro-4-((7R,8S,8aS,9S,12R)-4-fluoro-2-(((2R,7aS)-2-fluorotetrahydro-1H-pyrrolizin-7a(5H)-yl)methoxy)-7,8-dimethyl-14-((5-methyl-2-oxo-1,3-dioxol-4-yl)methyl)-7,8,8a,9,10,11,12,13-octahydro-1,3,6,13a,14-pentaaza-9,12-methanonaphtho[1,8-ab]heptalen-5-yl)naphthalen-2-yl isobutyrate [Example 31] | – | 9.70 | 990 | – | – |
| Cc1cc(N)nc(-c2c(Cl)c3c4c(nc(OC[C@@]56CCCN5C[C@H](F)C6)nc4c2F)N2C[C@H]4CC[C@@H]([C@H]2CC3)N4Cc2oc(=O)oc2C)c1C(F)(F)F (atropisomer, axis not shown; (aR)) [Example 3, 4-(((1R,4S,14aR)-11-((R)-6-amino-4-methyl-3-(trifluoromethyl)pyridin-2-yl)-12-chloro-10-fluoro-8-(((2R,7aS)-2-fluorotetrahydro-1H-pyrrolizin-7a(5H)-yl)methoxy)-1,2,3,4,5,13,14,14a-octahydro-1,4-epiminoazepino[1′,2′:1,7]azepino[2,3,4-de]quinazolin-15-yl)methyl)-5-methyl-1,3-dioxol-2-one] | 8.33 | – | – | 9.04 | 5700 |
| C#Cc1c(F)ccc2cc(O)cc(-c3nc4c5c(nc(OC[C@@]67CCCN6C[C@H](F)C7)nc5c3F)N3C[C@H]5CC[C@H](N5)[C@@H]3[C@@H](C)C4)c12 [Comp. Ex. 64, 5-ethynyl-6-fluoro-4-((5S,5aS,6S,9R)-1-fluoro-12-(((2R,7aS)-2-fluorotetrahydro-1H-pyrrolizin-7a(5H)-yl)methoxy)-5-methyl-4,5,5a,6,7,8,9,10-octahydro-3,10a,11,13,14-pentaaza-6,9-methanonaphtho[1,8-ab]heptalen-2-yl)naphthalen-2-ol, reference compound] | – | – | – | – | 830 |
| C#Cc1c(F)ccc2cc(O)cc(-c3nc4c5c(nc(OC[C@@]67CCCN6C[C@H](F)C7)nc5c3F)N3C[C@H]5CC[C@H](N5)[C@@H]3[C@@H](C)[C@H]4C)c12 [Comp. Ex. 87, reference compound] | – | – | – | – | 900 |
| C#Cc1c(F)ccc2cccc(-c3nc4c5c(nc(OC[C@@]67CCCN6C[C@H](F)C7)nc5c3F)N3C[C@H]5CC[C@@H]([C@H]3CCC4)N5Cc3oc(=O)oc3C)c12 [Example 1, 4-(((6aR,7S,10R)-2-(8-ethynyl-7-fluoronaphthalen-1-yl)-1-fluoro-13-(((2R,7aS)-2-fluorotetrahydro-1H-pyrrolizin-7a(5H)-yl)methoxy)-5,6,6a,7,8,9,10,11-octahydro-4H-3,11a,12,14,15-pentaaza-7,10-methanocyclohepta[4,5]cycloocta[1,2,3-de]naphthalen-15-yl)methyl)-5-methyl-1,3-dioxol-2-one] | 8.60 | – | – | 8.24 | 3600 |
| C#Cc1c(F)ccc2cc(O)cc(-c3nc4c5c(nc(OC[C@@]67CCCN6C[C@H](F)C7)nc5c3F)N3C[C@H]5CC[C@@H]([C@H]3CCC4)N5Cc3oc(=O)oc3C)c12 [Example 8, 4-(((6aR,7S,10R)-2-(8-ethynyl-7-fluoro-3-hydroxynaphthalen-1-yl)-1-fluoro-13-(((2R,7aS)-2-fluorotetrahydro-1H-pyrrolizin-7a(5H)-yl)methoxy)-5,6,6a,7,8,9,10,11-octahydro-4H-3,11a,12,14,15-pentaaza-7,10-methanocyclohepta[4,5]cycloocta[1,2,3-de]naphthalen-15-yl)methyl)-5-methyl-1,3-dioxol-2-one] | 8.32 | – | – | 9.31 | 1100 |
| C#Cc1c(F)ccc2cc(O)cc(-c3c(F)c4c5c(nc(OCC67CCCN6CC(F)C7)nc5c3F)N3CC5CCC(C3CCC4)N5Cc3oc(=O)oc3C)c12 [Example 28, 4-(((1S,4R,11R,15aR)-11-(8-ethynyl-7-fluoro-3-hydroxynaphthalen-1-yl)-10,12-difluoro-8-(((2R,7aS)-2-fluorotetrahydro-1H-pyrrolizin-7a(5H)-yl)methoxy)-2,3,4,5,13,14,15,15a-octahydro-1H-1,4-epiminoazepino[1′,2′:1,8]azocino[2,3,4-de]quinazolin-16-yl)methyl)-5-methyl-1,3-dioxol-2-one] | – | 9.74 | 700 | – | – |
| C#Cc1c(F)ccc2cc(O)cc(-c3nc4c5c(nc(OC[C@@]67CCCN6C[C@H](F)C7)nc5c3F)N3C[C@H]5CC[C@@H]([C@@H]3[C@@H](C)[C@H]4C)N5Cc3oc(=O)oc3C)c12 [Example 29, 4-(((7R,8S,8aS,9S,12R)-5-(8-ethynyl-7-fluoro-3-hydroxynaphthalen-1-yl)-4-fluoro-2-(((2R,7aS)-2-fluorotetrahydro-1H-pyrrolizin-7a(5H)-yl)methoxy)-7,8-dimethyl-7,8,8a,9,10,11,12,13-octahydro-1,3,6,13a,14-pentaaza-9,12-methanonaphtho[1,8-ab]heptalen-14-yl)methyl)-5-methyl-1,3-dioxol-2-one] | – | – | – | 9.89 | 750 |
| C#Cc1c(F)ccc2cc(OC(=O)C(C)C)cc(-c3nc4c5c(nc(OC[C@@]67CCCN6C[C@H](F)C7)nc5c3F)N3C[C@H]5CC[C@@H]([C@H]3CCC4)N5Cc3oc(=O)oc3C)c12 [Example 30, 5-ethynyl-6-fluoro-4-((6aR,7S,10R)-1-fluoro-13-(((2R,7aS)-2-fluorotetrahydro-1H-pyrrolizin-7a(5H)-yl)methoxy)-15-((5-methyl-2-oxo-1,3-dioxol-4-yl)methyl)-5,6,6a,7,8,9,10,11-octahydro-4H-3,11a,12,14,15-pentaaza-7,10-methanocyclohepta[4,5]cycloocta[1,2,3-de]naphthalen-2-yl)naphthalen-2-yl isobutyrate] | – | – | – | 9.66 | 660 |
| C#Cc1c(F)ccc2cc(N)cc(-c3nc4c5c(nc(OC[C@]6(C)CN(C)CC[C@@H]6C(F)F)nc5c3F)N3C[C@H]5CC[C@H](N5)[C@H]3CCC4)c12 [Example 76-P, 4-((6aR,7S,10R)-13-(((3S,4S)-4-(difluoromethyl)-1,3-dimethylpiperidin-3-yl)methoxy)-1-fluoro-5,6,6a,7,8,9,10,11-octahydro-4H-3,11a,12,14,15-pentaaza-7,10-methanocyclohepta[4,5]cycloocta[1,2,3-de]naphthalen-2-yl)-5-ethynyl-6-fluoronaphthalen-2-amine] | 10.15 | – | – | 9.57 | – |
